# Test results reported in the RepoRT retention time repository (doi:10.1016/j.jhazmat.2019.121712).
# Experiment: Thermo Scientific Acclaim RSLC 120 C18, 100 × 2.1 mm, 2.2 µm, 30 °C; A: 90% water + 10% methanol + 0.01% formic acid + 5 mM ammonium formate; B: methanol + 0.01% formic acid + 5 mM ammonium formate; gradient (min/%B) 0.1/1 3/39 14/99.9 16/99.9
# Settings: stereoisomer not certain
row,SMILES,LC retention time [min]
1,NC(=O)C(CCN1CCCCC1)(c1ccccc1)c1ccccc1,5.19
2,O=C(c1ccccc1)c1ccc2n1CCC2C(=O)O (stereo unspecified),6.94
3,CCCCCCC(C)(C)c1ccc(C2CCCC(O)C2)c(O)c1 (stereo unspecified),13.1
4,COc1cc2[nH]c(C)c(CCN3CCN(c4ccccc4)CC3)c2cc1OC,5.76
5,O=C(OC1CC2CCC(C1)[N+]21CCCC1)C(O)(c1ccccc1)c1ccccc1 (stereo unspecified),5.72
6,CNC(=O)Oc1cc(C)c(SC)c(C)c1,9.34
7,O=C1NC(=O)C2CC=CCC12 (stereo unspecified),4.37
8,CCN1CCCC1CNC(=O)c1cc(S(N)(=O)=O)ccc1O (stereo unspecified),3.18
9,CN1C2CCC1C(C(=O)O)C(OC(=O)c1ccccc1)C2 (stereo unspecified),4.68
10,CC(=O)NCCCS(=O)(=O)O,1.4
11,CCOP(=O)(OCC)Oc1ccc([N+](=O)[O-])cc1,8.01
12,CNC(=O)Oc1cccc(N=CN(C)C)c1,3.14
13,CNCCC(Oc1ccccc1C)c1ccccc1 (stereo unspecified),7.63
14,COc1ccc2[nH]cc(CCN(C(C)C)C(C)C)c2c1,4.81
15,CC[N+]1([O-])CCCC1CNC(=O)c1cc(S(=O)(=O)CC)c(N)cc1OC (stereo unspecified),4.33
16,CC1CC(C)C(=O)C(C(O)CC2CC(=O)NC(=O)C2)C1 (stereo unspecified),5.99
17,CNC(=O)N(C)c1nc2ccccc2s1,8.26
18,CCCc1nn(C)c2c(=S)nc(-c3cc(S(=O)(=O)N4CCN(CC)CC4)ccc3OCC)[nH]c12,10.6
19,CCOc1ccc(NC(=O)OC(C)C)cc1OCC,9.04
20,Cc1ncc([N+](=O)[O-])n1C,4.27
21,CNC(C)C1CCC(N)C(OC2C(N)CC(N)C(OC3OCC(C)(O)C(NC)C3O)C2O)O1 (stereo unspecified),11.6
22,CCCCCn1nc(C(=O)Nc2cccc3ccccc23)c2ccccc21,13
23,CC(C)C(O)(C(=O)OCC1=CCN2CCC(O)C12)C(C)O (stereo unspecified),3.65

row,SMILES,LC retention time [min]
1,COc1ccc2cc(CCC(C)=O)ccc2c1,9.82
2,COc1ccc(CC2c3cc(OC)c(OC)cc3CCN2C)cc1OC (stereo unspecified),4.71
3,CC1(C)OC2COC3(COS(N)(=O)=O)OC(C)(C)OC3C2O1 (stereo unspecified),6.08
4,C=CC(=O)NC(C)(C)CS(=O)(=O)O,2.8
5,Cc1nnc(NS(=O)(=O)c2ccc(N)cc2)s1,4.21
6,CN1CCC(=C2c3ccccc3CC(=O)c3sccc32)CC1,5.54
7,CN(CC=Cc1ccccc1)Cc1cccc2ccccc12,8.52
8,Cn1c(=O)c2c(ncn2CCO)n(C)c1=O,4.09
9,CC12CCC(=O)C=C1CCC1C2CCC2(C)C(OC(=O)c3ccccc3)CCC12 (stereo unspecified),13.8
10,O=P(Oc1ccccc1)(Oc1ccccc1)Oc1ccccc1,11
11,CC1CCC2(OC1)OC1CC3C4CC=C5CC(O)CCC5(C)C4CCC3(C)C1C2C (stereo unspecified),15.1
12,CCCN(CCC)C(=O)SCC,10.7
13,CNCC(O)c1ccc(O)cc1 (stereo unspecified),1.6
14,CSc1nc(NC2CC2)nc(NC(C)(C)C)n1,10.5
15,C=CC1(C)CC(OC(=O)CSCCN(CC)CC)C2(C)C(C)CCC3(CCC(=O)C32)C(C)C1O (stereo unspecified),7.71
16,CCCCCn1cc(C(=O)c2cccc3ccccc23)c2ccc(OC)cc21,12.4
17,CN(C)c1ccc(N=Nc2ccccc2)cc1,12.4
18,CCOC(=O)CCN(Cc1ccccc1)SN(C)C(=O)ON=C(C)SC,10.8
19,C=CCN1CCCC1CNC(=O)c1cc2n[nH]nc2cc1OC (stereo unspecified),3.62
20,COC(=O)C(Cc1ccccc1)NC(=O)C(N)CC(=O)O (stereo unspecified),5.01
21,CCCCOc1cc(C(=O)NCCN(CC)CC)c2ccccc2n1,8.41
22,CCC(C)CC(C)N (stereo unspecified),4.68
23,CN=C(NC#N)NCCSCc1nc[nH]c1C,3.24

row,SMILES,LC retention time [min]
1,CCC1OC(=O)C(C)C(OC2CC(C)(OC)C(O)C(C)O2)C(C)C(OC2OC(C)CC(N(C)C)C2O)C(C)(O)CC(C)C(=O)C(C)C(O)C1(C)O (stereo unspecified),8
2,COP(=O)(NC(C)=O)SC (stereo unspecified),3.11
3,COP(=S)(OC)Oc1ccc(SC)c(C)c1,11
4,CN(C)CCc1c[nH]c2ccccc12,3.94
5,O=C1OC(=O)c2ccccc21,9.58
6,CC(C)(C)C(NC(=O)c1nn(CC2CCCCC2)c2ccccc12)C(N)=O (stereo unspecified),11.7
7,Cc1cnc(C(=O)NCCc2ccc(S(=O)(=O)NC(=O)NC3CCCCC3)cc2)cn1,8.11
8,O=C(Oc1cccc2cccnc12)c1cn(CC2CCCCC2)c2ccccc12,12.4
9,NC(=O)c1ccccc1O,4.76
10,CCC(C)C(=O)OC1CC(O)C=C2C=CC(C)C(CCC(O)CC(O)CC(=O)O)C21 (stereo unspecified),8.36
11,COC(=O)Nc1nc2ccccc2[nH]1,5.46
12,CCCCCn1nc(C(=O)c2cccc3ccccc23)c2ccccc21,13.1
13,CCN(CC)C(=O)C1C=C2c3cccc4[nH]cc(c34)CC2NC1 (stereo unspecified),5.56
14,CC(=O)Oc1c(C)cc(OCC(O)CNC(C)C)c(C)c1C (stereo unspecified),6.28
15,O=C(c1cccc2ccccc12)c1cn(CCCCO)c2ccccc12,9.56
16,CCC=CCC1=C(C)C(OC(=O)C2C(C=C(C)C(=O)OC)C2(C)C)CC1=O (stereo unspecified),12.2
17,O=C1CN=C(c2ccccc2)c2cc([N+](=O)[O-])ccc2N1,7.79
18,C#CC[N+](C)([O-])C(C)Cc1ccccc1 (stereo unspecified),5.33
19,CCCCn1c(O)c(C(=O)c2cccc3ccccc23)c2ccccc21,13.5
20,CNS(=O)(=O)Cc1ccc2[nH]cc(CCN(C)C)c2c1,3.43
21,CCN(C(=O)SCc1ccccc1)C(C)C(C)C (stereo unspecified),12.2
22,CC(C)C1CCC(C(=O)NC(Cc2ccccc2)C(=O)O)CC1 (stereo unspecified),10.4
23,CC(C)NCC(O)c1ccc(NS(C)(=O)=O)cc1 (stereo unspecified),2.96

row,SMILES,LC retention time [min]
1,CCNC1C2CCC(C2)C1c1ccccc1 (stereo unspecified),6.08
2,Nc1ncnc2nc[nH]c12,2.43
3,CC(C)N1C(=O)c2ccccc2NS1(=O)=O,5.22
4,CCCCCCCCOC(=O)c1ccccc1C(=O)OCCCCCCCC,15.3
5,CCC(C)OC(=O)N1CCCCC1CCO (stereo unspecified),8.83
6,COC(=O)Nc1nc2ccc(S(=O)c3ccccc3)cc2[nH]1 (stereo unspecified),6.66
7,CCOc1ccc(NC(C)=O)cc1,5.93
8,COc1nccnc1NS(=O)(=O)c1ccc(N)cc1,4.44
9,CCCn1c(C)c(C(=O)c2cccc3ccccc23)c2ccccc21,11.5
10,CCCc1nn(C)c2c(=O)[nH]c(-c3cc(S(=O)(=O)N4CCN(CC)CC4)ccc3OCC)nc12,7.84
11,N=C(N)N1CCc2ccccc2C1,4.39
12,COP(N)(=O)SC (stereo unspecified),2.76
13,CCOP(=S)(OCC)Oc1cc(-c2ccccc2)on1,11.3
14,CCc1c(C)[nH]c2c1C(=O)C(CN1CCOCC1)CC2 (stereo unspecified),4.89
15,Cc1ccccc1-n1c(C)nc2ccccc2c1=O,7.83
16,COc1nc(NC(C)C)nc(NC(C)C)n1,8.86
17,NS(=O)(=O)c1ccc(N2CCCCS2(=O)=O)cc1,4.11
18,CC[N+]([O-])(CC)CC(=O)Nc1c(C)cccc1C,5.34
19,CCCCc1oc2ccc(NS(C)(=O)=O)cc2c1C(=O)c1ccc(OCCCN(CCCC)CCCC)cc1,10.1
20,O=C(Nc1cccc(C2=NCCN2)c1)Nc1cccc(C2=NCCN2)c1,3.78
21,CC(NCCC(c1ccccc1)c1ccccc1)c1ccccc1 (stereo unspecified),8.54
22,CNC(=N[N+](=O)[O-])NCC1CCOC1 (stereo unspecified),3.59
23,COP(=O)(OC)Oc1ccc(SC)c(C)c1,8.82

row,SMILES,LC retention time [min]
1,CCC1OC(=O)CC(O)C(C)C(OC2OC(C)C(OC3CC(C)(O)C(O)C(C)O3)C(N(C)C)C2O)C(CC=O)CC(C)C(=O)C=CC(C)=CC1COC1OC(C)C(O)C(OC)C1OC (stereo unspecified),7.88
2,CCCCCCC(C)(C)c1ccc(C2CC(O)CCC2CCCO)c(O)c1 (stereo unspecified),12
3,CNC(=O)Oc1cc(C)cc(C)c1C,8.4
4,CCC1OC(=O)C(C)C(=O)C(C)C(OC2OC(C)CC(N(C)C)C2O)C(C)(OC)CC(C)C(=O)C(C)C2N(CCCCn3cnc(-c4cccnc4)c3)C(=O)OC12C (stereo unspecified),7.25
5,CC(C)NCC(O)COc1cccc2[nH]ccc12 (stereo unspecified),3.89
6,CN1C2CCC1CC(OC(=O)C(O)c1ccccc1)C2 (stereo unspecified),3.73
7,CCCSC(=O)N(CCC)CCC,11.5
8,CN(C)CC(CN1c2ccccc2Sc2ccccc21)N(C)C (stereo unspecified),8.54
9,CCCCCc1cc(O)c2c(c1)OC(C)(C)c1ccc(C)cc1-2,13.7
10,CN1CCN(CC(=O)N2c3ccccc3C(=O)Nc3cccnc32)CC1,4.11
11,CCOP(=O)(NC(C)C)Oc1ccc(SC)c(C)c1 (stereo unspecified),10.4
12,CN1CCN(CCCN2c3ccccc3Sc3ccc(S(=O)(=O)N(C)C)cc32)CC1,8.15
13,CCCCOC(=O)c1ccccc1C(=O)OCc1ccccc1,12.4
14,Cc1nc(N(C)C)nc(OC(=O)N(C)C)c1C,7.77
15,COC(=O)C1=C(C#N)NC(C)=C(C(=O)OC(C)C)C1c1cccc([N+](=O)[O-])c1 (stereo unspecified),10.3
16,CCOC(=O)C1(c2ccccc2)CCN(CCC(C#N)(c2ccccc2)c2ccccc2)CC1,10.4
17,CCCCN1CCCCC1C(=O)Nc1c(C)cccc1C (stereo unspecified),6.18
18,CCCOC(C(=O)OC1CCN(C)CC1)(c1ccccc1)c1ccccc1,9.36
19,COCC(=O)N(c1c(C)cccc1C)C(C)C(=O)OC (stereo unspecified),8.22
